Publication PMC3261769 (Journal of Medicinal Chemistry, 2011)
Blank lines part the entries; values can stand above or below the molecule they belong to.

Tests used:
[1] = iv and os pharmacokinetics in mice; format: in vivo; conditions: male, CD-1, mouse, plasma, 5 mg/kg
[2] = test system: PtK2 kidney epithelial cells; conditions: read-out: IC50 ± SD PtK2; ref [16]; cited from earlier work
[3] = test system: A10 rat embryonic aortic smooth muscle cells; conditions: read-out: IC50 ± SD A10; ref [16]; cited from earlier work
[4] = test system: HUVEC human umbilical vein endothelial cells; conditions: read-out: IC50 ± SD HUVEC; ref [16]; cited from earlier work
[5] = test system: MCF-7 human breast carcinoma cells; conditions: read-out: IC50 ± SD MCF-7; ref [16]; cited from earlier work
[6] = test system: HAOSMC human aortic smooth muscle cells; conditions: read-out: IC50 ± SD HAOSMC; ref [16]; cited from earlier work
tubulin = assay: Inhibition of tubulin polymerization; format: biochemical; conditions: read-out: tubulin assembly inhibition; footnotes of Table 4
OVCAR-3 cells = assay: Growth inhibition of OVCAR-3 cells; format: cell-based, human
[7] = test system: A2780-CIS cells (cisplatin-resistant); assay: Growth inhibition of A2780-CIS cells; format: cell-based, human
A2780wt cells = assay: Growth inhibition of A2780wt cells; format: cell-based, human; conditions: read-out: IC50 ± SD A2780wt

SMILES: CC(=O)O[C@H]1C(=O)[C@@]2(C)[C@H]([C@H](OC(=O)c3ccccc3)[C@]3(O)C[C@H](OC(=O)[C@H](O)[C@@H](NC(=O)c4ccccc4)c4ccccc4)C(C)=C1C3(C)C)[C@]1(OC(C)=O)CO[C@@H]1C[C@@H]2O [PTX, paclitaxel]
- IC50 [2]: 0.021 ± 0.008 µM
- IC50 [3]: 0.038 ± 0.01 µM
- IC50 [4]: 0.007 ± 0.004 µM
- IC50 [5]: 0.003 ± 0.0005 µM
- IC50 [6]: 0.006 ± 0.006 µM

SMILES: N.N.[Cl][Pt][Cl] [cisplatin]
- RI-2 (Resistant Index-2) (OVCAR-3 cells; IC50 in OVCAR-3 divided by IC50 in A2780wt): 3.7
- IC50 (OVCAR-3 cells; read-out: IC50 ± SD OVCAR-3): 1.82 ± 0.254 µM
- RI-1 (Resistant Index-1) ([7]; IC50 in A2780-CIS divided by IC50 in A2780wt): 18.5
- IC50 ([7]; read-out: IC50 ± SD A2780-CIS): 8.98 ± 0.565 µM
- IC50 (A2780wt cells): 0.485 ± 0.06 µM

More lines, now with the values ahead:

- clearance [1]: 28.6 mL/min/kg
SMILES: COc1cc(Sc2c(-c3cc[nH]c3)[nH]c3ccccc23)cc(OC)c1OC [Compound 5, 2-(1H-Pyrrol-3-yl)-3-[(3′,4′,5′-trimethoxyphenyl)thio]-1H-indole]

- IC50 (tubulin): 3.1 µM
SMILES: CCC1=C[C@@H]2CN(C1)Cc1c([nH]c3ccccc13)[C@@](C(=O)OC)(c1cc3c(cc1OC)N(C)[C@H]1[C@@](O)(C(=O)OC)[C@H](OC(C)=O)[C@]4(CC)C=CCN5CC[C@]31[C@@H]54)C2 [VRB, vinorelbine]
